Experiments:
[1] = test system: edemas of the rat ears induced by TPA; test: TPA-induced rat ear edema inhibition test; assay type: in vivo, Wistar rats; conditions: for Edema thickness: topical in acetone 30 min after TPA, measured after 8 hours
Procedure: The anti-inflammatory activity of the lignan compound isolated and purified in <Example 1> was tested in animal models. The anti-inflammatory activity was measured by edema inhibition test on rats. As the test animals, 5-week-old Wistar rats (DaeHan Biolink Co., Ltd, Korea) were used. The animals were provided with standard pellet forming rat feed (Cheiljedang Corporation, Korea) and given freely to feed and water. Also, the animals were housed in conditions of 12-hr light/12-hr dark cycle, temperature of 25±2° C. and humidity of 60±10%. Inflammation inducing agent TPA (12-O-tetradecanoylphorbol-13-acetate; Sigma) was dissolved in acetone to a concentration of 200 μg/mL. The edemas of the rat ears were induced by applying the TPA solution locally to each of the outer and inner faces of the ear in an amount of 10 μl/ear (4 μg/ear). The macelignan purified in <Example 1> and non-steroidal anti-inflammatory drug indomethacin as a control substance were dissolved in acetone and used in amounts of 20, 200 and 2000 μg/ear. Each of the macelignan and the indomethacin was applied locally to the rat ears at 30 minutes after treatment with TPA. A control group was locally applied with acetone. The thickness of the rat ears was measured with a caliper 8 hours after treatment with each of the substances. An increase in the ear thickness in the group treated with the sample was compared to that of the group untreated with the sample, and inflammation inhibitory effect was measured by calculating percent edema inhibition.

[2] = test system: inflammatory cells, mast cells, eosinophils; test: Skin staining (H&E, Toluidine blue, Congo red), atopic dermatitis model; assay type: in vivo, NC/Nga mice
Procedure: 8-week-old NC/Nga mice (20-25 g) were purchased from Chungang Lab. Animal. After adapting for 1 week, the NC/Nga mouse was anesthetized with 90% ethyl ether (Ducsan, Korea) and hair was removed from the occipital region and the back of the mouse using depilatory cream (Reckitt Benckiser, France). After allowing micro wound healing for a day, 100 mg of mite antigen cream (Biostir, Inc. Japan) comprising Dermatophagoides farina, which causes atopic dermatitis, as a main ingredient was evenly applied on the ear, occipital region and back, 3 times a week (for 5 weeks, from week 9 to week 13). 2 hours before application of the mite antigen cream, 4% SDS solution was applied at the same area to increase transdermal absorption of the mite antigen cream by inducing the breakdown of skin fats and cuticle layer. From week 3 following the application, IgE value was measured to quantitate the degree of atopic dermatitis. Also during the drug treatment period (week 12 to week 13), 100 mg of the mite antigen cream was applied 3 times a week to prevent spontaneous healing of the atopic dermatitis.
In order to induce atopic dermatitis, 100 mg of mite antigen cream was applied on the ear, occipital region and back of NC/Nga mouse (9 to 11 weeks old), except for the negative control group, 3 times a week, 2 hours after the application of 4% SDS solution. Three weeks later, it was observed whether atopic dermatitis was induced by checking skin rash, erythema, cornification, or the like. Atopic dermatitis was induced in all groups except for the negative control group. For drug treatment and evaluation of therapeutic effect, mice were grouped into 12 groups, 6 oral administration groups and 6 topical application groups (each consisting of negative control group, positive control group, macelignan low conc. group, macelignan high conc. group, nutmeg extract low conc. group, and nutmeg extract high conc. group), with n=5 per cage. During the following drug treatment and evaluation period of 2 weeks (12 to 13 weeks old), the negative control groups, which had not been treated with 4% SDS solution and mite antigen cream, were treated with physiological saline (oral administration group) or base cream (topical application group) every day, and the positive control groups, which had been treated with 100 mg of mite antigen cream 2 hours after application of 4% SDS solution, 3 times every week, were treated with physiological saline (oral administration group) or base cream (topical application group). The oral administration groups were treated with 100 mg of mite antigen cream 2 hours after application of 4% SDS solution, 3 times every week, and were treated with macelignan or nutmeg extract at low concentration (50 mg/kg/day) or high concentration (150 mg/kg/day) every day. The topical application groups were treated with 100 mg of mite antigen cream 2 hours after application of 4% SDS solution, 3 times every week, and were treated with macelignan cream or nutmeg extract cream at low concentration (20 mg/kg/day) or high concentration (60 mg/kg/day) every day. Transepidermal water loss (TEWL), skin hydration and erythema index were measured one day before the end of the test. Serum was obtained by retro-orbital blood sampling. After the end of the test (14 weeks old) spleen and skin tissues from occipital region and back were sampled and stored at −70° C. ALN (axillary lymph node) was stored in DMEM containing 2% FBS (fetal bovine serum). The skin tissues were stored in 10% formalin solution.
After the end of the experiment, skin was isolated from the occipital region. Hematoxylin/eosin (H&E) staining was performed to examine change of inflammatory cells such as mast cells, neutrophils, eosinophils, etc. in the epidermis, dermis and keratinocytes and change of skin thickness. Toluidine blue staining was performed to selectively stain the mast cells, and congo red staining was performed to selectively stain the eosinophils.

eosinophils = test: Counting of immune cells in bronchioalveolar lavage (BAL) fluid, asthma model; assay type: in vivo, C57BL/6 (B6) male mice; conditions: oral 400 μg/g and 800 μg/g
Procedure: 5 μL of allergen, AP (aspergillus protease, 1 mg/mL, Sigma-Aldrich, St. Louis, Mo.) was mixed with 45 μL of OVA (chicken egg ovalbumin, 0.5 mg/mL, Sigma-Aldrich). After 3 intraperitoneal injections with 4-day intervals, asthma was induced by 2 intranasal challenges with 4-day interval. The intranasal challenge was performed under isoflurane inhalational anesthesia. Macelignan dissolved in corn oil was orally administered every day.
Within 24 hours after the last allergen challenge, the mouse was anesthetized by intraperitoneal injection of 0.1 mg/g sodium pentobarbital. After tracheal intubation, flexiVent (Scireq®, Montreal, Canada) was connected to maintain stable ventilation. Thereafter, striated muscle was relaxed by intravenous (IV) administration of 0.08 mg/kg pancuronium (Sigma-Aldrich). Following airway hypersensitivity test by IV administration of acetylcholine (Sigma-Aldrich), 1 mL of DPBS (Dulbecco's phosphate buffered saline) was injected twice into the intubation tube using a syringe for bronchioalveolar lavage. Thereafter, the chest was opened and the lungs were subjected to ELISpot assay. […]
When asthma is induced, various inflammatory cells increase in the airway. […] After performing BAL once again and collecting the BAL fluid, its volume was measured. […]

[3] = oral administration 50 and 150 mg/kg
[4] = topical application 20 and 60 mg/kg

COc1cc(C[C@H](C)[C@H](C)Cc2ccc3c(c2)OCO3)ccc1O (single isomer, unassigned) [macelignan]
Edema inhibition ([1]; dose 20 μg/ear): 36.7%
Edema thickness ([1]; dose 20 μg/ear): 157 ± 9 μm
Edema inhibition ([1]; dose 200 μg/ear): 60.5%
Edema thickness ([1]; dose 200 μg/ear): 98 ± 6 μm
Edema inhibition ([1]; dose 2000 μg/ear): 79.0%
Edema thickness ([1]; dose 2000 μg/ear): 52 ± 4 μm
percent edema inhibition compared with indomethacin ([1]; local application on rat ears): higher than that of currently commercially available anti-inflammatory drug indomethacin
rat edema induced by TPA (result in words) ([1]; local application on rat ears): inhibited the formation of edema in a concentration-dependent manner
Congo red staining: eosinophils [2, 3]: effect of decreasing eosinophils
H&E staining: inflammatory cells and epidermal thickness [2, 3]: effect of decreasing inflammatory cells and increased epidermal thickness
Toluidine blue staining: mast cells [2, 3]: effect of decreasing mast cells
Congo red staining: eosinophils [2, 4]: effect of decreasing eosinophils
H&E staining: inflammatory cells and epidermal thickness [2, 4]: effect of decreasing inflammatory cells and increased epidermal thickness
Toluidine blue staining: mast cells [2, 4]: effect of decreasing mast cells
other immune cells in the BAL fluid (eosinophils): Decrease of other immune cells was not observed
eosinophils in the BAL fluid (eosinophils; vs vehicle (corn oil) group): decreased eosinophils
